Patent US11529343B2, “Compositions and methods for identifying and treating dystonia disorders” (DUKE UNIVERSITY, priority 2015, dated 2022)
Peptide text beside a SMILES is read from it. * marks the point of attachment. Cbz = O=C(OCc1ccccc1)*

How the values were obtained:
[1] = tested on: delta-E Torsin1a localization; experiment: Delta-E Torsin1a mislocalization assay (% cells with EGFP puncta, high-content imaging); format: cell-based, human; conditions: single concentration: MG132 10 μM, PBA 20 mM
WT Torsin1a localization = experiment: Torsin1a localization assay in WT Torsin1a-expressing assay cell line; format: cell-based, human; conditions: for percentage of cells with punctate EGFP-Torsin1a signal, WT cell line: single concentration: MG132 10 μM, PBA 20 mM
Description: To develop an assay capable of detecting conditions that correct a dystonia cellular phenotype, two human cell lines were generated that stably expressed EGFP-tagged human wild-type Torsin 1A, or delta-E Torsin1a, from a single cDNA copy integrated at a defined genomic site (FIG. 1, panel 1).
To limit variation in expression levels associated with random integration or transient expression, single copies of either WT or delta-E human TOR1A cDNAs with N-terminal EGFP fusions were inserted at the FRT site in Flp-In™ T-Rex™ 293 cells (Thermo Fisher Scientific #R780-07) via flippase recombinase-mediated cassette exchange according to the manufacturer's recommended protocols. This system includes an inducible expression feature (TetON) that avoids selective pressure for potential toxic effects of chronic expression of mutant proteins (FIG. 1, panel 1).
Flp-In T-Rex 293 cells inducibly expressing either WT or delta-E Torsin1a were maintained in selective media [DMEM-HG (Thermo Fisher Scientific #11965)+1× GlutaMax (Thermo Fisher Scientific #35050-061)+75 μg/mL hygromycin (Thermo Fisher Scientific #10687-010)+15 μg/mL blasticidin S (Thermo Fisher Scientific #R210-01)+10% tetracycline screened FBS (Hyclone #SH30070.03T)+1% penicillin/streptomycin/amphotericin (Mediatech Inc. #30-004-C)]. The cells were maintained at 37° C./5% CO2. All experiments were performed on cells with fewer than 5 passages. HEK 293T cells (ATCC #CRL-3216) were maintained in HEK-T media [DMEM (Thermo Fisher #11995)+10% FBS (Hyclone #SH30070.03)+1× GlutaMAX+1% penicillin/streptomycin/amphotericin] at 37° C./5% CO2. Human dermal fibroblast lines were maintained in FGM media [MEM (Thermo Fisher #11095-080)+15% FBS (Hyclone #SH30070.03)+1% Non-Essential Amino Acids (Lonza #13-114E)+1% penicillin/streptomycin/amphotericin] at 37° C./5% CO2.
This approach provides control over expression levels, avoiding the wide variation typically seen with random genomic integration or transient expression approaches. […] The mutant phenotype was measured as the percentage of cells with one or more EGFP puncta using automated high-content imaging analysis (see infra).
Development and validation of the high-content image analysis and assay performance under high-throughput screening conditions is presented in FIG. 9. […] Automated exposure times for each plate were determined by setting a target saturation of 25% in channel 1 in wells containing tetracycline-induced delta-E cells. Detected cells were gated according to nuclear area, length-to-width ratio, and perimeter-to-area ratio. […] EGFP fluorescence (Ch2: excitation 488 nm; emission 509 nm) was used for puncta detection. Automated exposure times for each plate were determined by setting a target saturation of 35% in channel 2 in wells containing induced delta-E cells. […]

striatal mGluR5 LTD [2] = experiment: Long-term depression in cortico-striatal synapse, brain slices of heterozygous DYT1 knockin mice; format: cell-based; conditions: 20 μM, versus vehicle
Description: (§1) To directly test these predictions, whole-cell electrophysiology of striatal projection neurons was performed in acute brain slices to induce long-term depression in the presence of eIF2-alpha pathway-modulating drugs. Acute horizontal brain slices from the progeny of heterozygous ΔE Torsin1a knockin x homozygous Drd1a-tdTomato mice (age P15-21) were prepared largely as described in (Trusel et al., 2015, Cell Rep. 13, 1353-65). LTD was induced as in Trusel et al., 2015, with modifications.
(§2) Heterozygous delGAG Torsin1a knockin mice (courtesy of Dr. W. Dauer, University of Michigan) were crossed with homozygous Drd1a-tdTomato mice (Jackson Labs) and the progeny was used at postnatal day 15-21 for experiments. […]
(§3) Single slices were transferred to a recording chamber and superfused continuously with ACSF containing 50 μM picrotoxin at 32° C. and 3-4 mL/min. […] Evoked excitatory postsynaptic potentials (EPSPs) were recorded in the dorsolateral striatum, while stimulating every 30 seconds with a concentric bipolar electrode (FHC) in cortical layer V (see Trusel et al., Cell Reports, 2015). […] Baseline EPSPs were recorded for at least 10 min or until a stable baseline was reached. Data were acquired by pClamp v10 and analyzed using Clampfit v10.4, Origin v8.0, and GraphPad Prism v6.

striatal mGluR5 LTD [3] = experiment: Long-term depression in cortico-striatal synapse, acute brain slices of WT mice; format: cell-based; conditions: pre-incubation 5 nM, 1 hr
Description: as §1, §2, §3

| SMILES | percentage of cells with punctate EGFP-Torsin1a signal, delta-E cell line [1] | percentage of cells with punctate EGFP-Torsin1a signal, WT cell line (WT Torsin1a localization) | also measured |
| --- | --- | --- | --- |
| CC(C)C[C@@H](C=O)NC(=O)[C@H](CC(C)C)NC(=O)[C@H](CC(C)C)NC(=O)OCc1ccccc1 [MG132] (Cbz-Leu-Leu-Leu-aldehyde) | significantly increased | significantly increased |  |
| O=C(O)CCCc1ccccc1 [PBA, phenylbutyric acid] | ameliorated the burden of cells with punctate pathology | ameliorated the burden of cells with punctate pathology |  |
| O=C(/C=C/c1ccccc1)NC(NC(=S)Nc1ccc(Cl)cc1)C(Cl)(Cl)Cl (centres unmarked) [Sal-003] |  |  | effect on LTD in brain slices heterozygous for the DYT1 knockin mutation (delGAG) (striatal mGluR5 LTD [2]): restored long-term depression |
| O=C(COc1ccc(Cl)cc1)NC1CCC(NC(=O)COc2ccc(Cl)cc2)CC1 (centres unmarked) [ISRIB] |  |  | effect on LTD in WT brain slices (striatal mGluR5 LTD [3]): robustly inhibited LTD; Torsin1a expression levels, in words (WT Torsin1a localization; WT cell line): without effects on Torsin1a expression levels; effect on WT Torsin1a localization (cells with puncta), in words (WT Torsin1a localization; dose response, WT cell line): dose-dependent increase in cells with punctate Torsin1a localization |
